Assay results reported in patent US20250082640A1, “Therapeutics for Hyponatremia and Polycystic Kidney Disease” (University of Cincinnati, priority 2021, published 2025).

Assays:
Rats = experiment: Metabolic cage study of rats fed diet supplemented with R3-AND or R4-AND (Example 2); assay type: in vivo, rat; settings: for food intake / water intake / urine volume / urine osmolality: day 4, in diet (R4-ADN at 0.15% weight/weight); for food intake: vs control (FIG. 7A); for water intake: vs control (FIG. 7B); for urine volume: vs control (FIG. 7C); for urine osmolality: vs control (FIG. 7D)
[1] = tested on: water channel aquaporin 2 (AQP2); settings: rat kidney collecting duct system, high dose; cited from earlier work
Male Sprague Dawley rats = experiment: Metabolic cage study of rats fed diet containing R2-ADN or adenine (Example 1, Table 1); assay type: in vivo, rat; settings: for Urine osmolality, Average Baseline / Urine osmolality, Baseline Day 1 / Urine osmolality, Baseline Day 2: baseline before treatment; for Urine osmolality, Day 1: treatment day 1; for Urine osmolality, Day 2: treatment day 2; for Urine osmolality, Day 3: treatment day 3; for Urine osmolality, Day 4: treatment day 4; for Urine osmolality, Day 5: treatment day 5; for Urine osmolality, Day 6: treatment day 6
From the text: The effects of R2-ADN on these physiologic parameters are dose- and time-dependent.
In addition, the effects of adenine (ADN) were compared to those of R2-ADN on these physiologic parameters.
Male Sprague Dawley rats were placed in metabolic cages and fed powdered rodent chow with access to distilled water ad libitum. After adjustment, baseline data were collected for 2 days and then rats were randomly divided into different groups. […]

salt transporter NKCC2 = settings: rat kidney medullary thick ascending limb, high dose; cited from earlier work
[2] = tested on: primary human hepatocytes; settings: in vitro; cited from earlier work
45 strains of mice = settings: single oral dose; cited from earlier work
[3] = rats of the 0.15% in diet group
[4] = rats of the 0.20% in diet group
[5] = rats of the 0.25% in diet group
[6] = rats, 0.15% in diet, adenine vs R2-ADN

O=C(Nc1ncnc2nc[nH]c12)c1ccccc1 [R3-AND, N6-benzoyladenine]
food intake (Rats): none of the measured parameters
water intake (Rats): none of the measured parameters
urine volume (Rats): none of the measured parameters
urine osmolality (Rats): none of the measured parameters

Nc1ncnc2nc[nH]c12 [ADN, adenine]
AQP2 gene expression and protein abundance [1]: decreasing the gene expression and protein abundance
Urine osmolality, Average Baseline (Male Sprague Dawley rats; [3]): 1890 mosm/kg H2O
Urine osmolality, Baseline Day 1 (Male Sprague Dawley rats; [3]): 1848 mosm/kg H2O
Urine osmolality, Baseline Day 2 (Male Sprague Dawley rats; [3]): 1933 mosm/kg H2O
Urine osmolality, Average Baseline (Male Sprague Dawley rats; [4]): 1619 mosm/kg H2O
Urine osmolality, Baseline Day 1 (Male Sprague Dawley rats; [4]): 1638 mosm/kg H2O
Urine osmolality, Baseline Day 2 (Male Sprague Dawley rats; [4]): 1599 mosm/kg H2O
Urine osmolality, Average Baseline (Male Sprague Dawley rats; [5]): 1529 mosm/kg H2O
Urine osmolality, Baseline Day 1 (Male Sprague Dawley rats; [5]): 1648 mosm/kg H2O
Urine osmolality, Baseline Day 2 (Male Sprague Dawley rats; [5]): 1410 mosm/kg H2O
urine osmolality (Male Sprague Dawley rats; [6]): no effect
urine volume / daily water balance (Male Sprague Dawley rats; [6]): no effect
Urine osmolality, Day 1 (Male Sprague Dawley rats; rats, 0.15% in diet): 1750 mosm/kg H2O
Urine osmolality, Day 2 (Male Sprague Dawley rats; rats, 0.15% in diet): 1752 mosm/kg H2O
Urine osmolality, Day 3 (Male Sprague Dawley rats; rats, 0.15% in diet): 1770 mosm/kg H2O
Urine osmolality, Day 4 (Male Sprague Dawley rats; rats, 0.15% in diet): 1671 mosm/kg H2O
Urine osmolality, Day 5 (Male Sprague Dawley rats; rats, 0.15% in diet): 1700 mosm/kg H2O
Urine osmolality, Day 6 (Male Sprague Dawley rats; rats, 0.15% in diet): 1738 mosm/kg H2O
Urine osmolality, Day 1 (Male Sprague Dawley rats; rats, 0.20% in diet): 1475 mosm/kg H2O
Urine osmolality, Day 2 (Male Sprague Dawley rats; rats, 0.20% in diet): 1371 mosm/kg H2O
Urine osmolality, Day 3 (Male Sprague Dawley rats; rats, 0.20% in diet): 1354 mosm/kg H2O
Urine osmolality, Day 4 (Male Sprague Dawley rats; rats, 0.20% in diet): 1296 mosm/kg H2O
Urine osmolality, Day 5 (Male Sprague Dawley rats; rats, 0.20% in diet): 1279 mosm/kg H2O
Urine osmolality, Day 6 (Male Sprague Dawley rats; rats, 0.20% in diet): 1386 mosm/kg H2O
Urine osmolality, Day 1 (Male Sprague Dawley rats; rats, 0.25% in diet): 1198 mosm/kg H2O
Urine osmolality, Day 2 (Male Sprague Dawley rats; rats, 0.25% in diet): 848 mosm/kg H2O
Urine osmolality, Day 3 (Male Sprague Dawley rats; rats, 0.25% in diet): 976 mosm/kg H2O
Urine osmolality, Day 4 (Male Sprague Dawley rats; rats, 0.25% in diet): 1019 mosm/kg H2O
Urine osmolality, Day 5 (Male Sprague Dawley rats; rats, 0.25% in diet): 938 mosm/kg H2O
Urine osmolality, Day 6 (Male Sprague Dawley rats; rats, 0.25% in diet): 956 mosm/kg H2O
NKCC2 gene expression and protein abundance (salt transporter NKCC2): decreasing the gene expression and protein abundance

Nc1nc(Cl)nc2nc[nH]c12 [R2-ADN, 2-chloro-6-aminopurine]
potency relative to adenine in effects on water handling / water loss by the kidney (Male Sprague Dawley rats; rats): more potent than adenine
Urine osmolality, Average Baseline (Male Sprague Dawley rats; [3]): 1558 mosm/kg H2O
Urine osmolality, Baseline Day 1 (Male Sprague Dawley rats; [3]): 1614 mosm/kg H2O
Urine osmolality, Baseline Day 2 (Male Sprague Dawley rats; [3]): 1502 mosm/kg H2O
water intake (Male Sprague Dawley rats; rats, 0.075%, 0.15% or 0.25% in diet, 7 days, vs baseline and control, dose- and time-dependent (FIGS. 1A-1D)): significant increase
urine volume (Male Sprague Dawley rats; rats, 0.075%, 0.15% or 0.25% in diet, 7 days, vs baseline and control, dose- and time-dependent (FIGS. 2A-2D)): significant increase
urine osmolality (Male Sprague Dawley rats; rats, 0.075%, 0.15% or 0.25% in diet, 7 days, vs baseline or control, dose- and time-dependent (FIGS. 3A-3D)): sharp reduction
urine osmolality (Male Sprague Dawley rats; [6]): significantly impaired
urine volume / daily water balance (Male Sprague Dawley rats; [6]): significantly impaired
Urine osmolality, Day 1 (Male Sprague Dawley rats; rats, 0.15% in diet): 1085 mosm/kg H2O
Urine osmolality, Day 2 (Male Sprague Dawley rats; rats, 0.15% in diet): 625 mosm/kg H2O
Urine osmolality, Day 3 (Male Sprague Dawley rats; rats, 0.15% in diet): 720 mosm/kg H2O
Urine osmolality, Day 4 (Male Sprague Dawley rats; rats, 0.15% in diet): 649 mosm/kg H2O
Urine osmolality, Day 5 (Male Sprague Dawley rats; rats, 0.15% in diet): 657 mosm/kg H2O
Urine osmolality, Day 6 (Male Sprague Dawley rats; rats, 0.15% in diet): 508 mosm/kg H2O
reduction in urine osmolality (Male Sprague Dawley rats; rats, 0.15% in diet, within the second day of treatment): ~60%
food intake (Male Sprague Dawley rats; rats, high dose (0.25%), day 7 of feeding): significant reduction
food intake (Male Sprague Dawley rats; rats, lower doses in diet (FIGS. 4A-4D)): did not significantly alter
changes in body weight (Male Sprague Dawley rats; rats, vs control group (FIGS. 5A-5D)): impacted the changes in body weight

Cc1ccccc1C(=O)Nc1ccc(C(=O)N2CCCC(O)c3cc(Cl)ccc32)c(C)c1 (stereo not shown) [tolvaptan]
hepatocyte toxicity [2]: causes mitochondrial-induced apoptosis and oxidative stress
signs of liver injury mechanisms (45 strains of mice): signs of mitochondrial dysfunction, increased oxidative stress, and activation of immune response

CN(C)c1ncnc2nc[nH]c12 [R4-ADN, 6-(Dimethylamino) purine]
potency relative to adenine in increasing water loss by the kidney (Rats): more potent than adenine
food intake (Rats): significant reduction
water intake (Rats): significant increase
urine volume (Rats): significant increase
urine osmolality (Rats): sharp reduction
